Assay results taken from patent US20120196854A1, “PHARMACEUTICAL COMPOSITION COMPRISING AROMATIC HETEROCYCLIC COMPOUND” (Kyowa Hakko Kirin Co., Ltd., priority 2009, published 2012).

Biological target: T1, cyclooxygenase-2 (COX-2) (Homo sapiens, UniProt P35354)
T1 sequence (P35354 18-604): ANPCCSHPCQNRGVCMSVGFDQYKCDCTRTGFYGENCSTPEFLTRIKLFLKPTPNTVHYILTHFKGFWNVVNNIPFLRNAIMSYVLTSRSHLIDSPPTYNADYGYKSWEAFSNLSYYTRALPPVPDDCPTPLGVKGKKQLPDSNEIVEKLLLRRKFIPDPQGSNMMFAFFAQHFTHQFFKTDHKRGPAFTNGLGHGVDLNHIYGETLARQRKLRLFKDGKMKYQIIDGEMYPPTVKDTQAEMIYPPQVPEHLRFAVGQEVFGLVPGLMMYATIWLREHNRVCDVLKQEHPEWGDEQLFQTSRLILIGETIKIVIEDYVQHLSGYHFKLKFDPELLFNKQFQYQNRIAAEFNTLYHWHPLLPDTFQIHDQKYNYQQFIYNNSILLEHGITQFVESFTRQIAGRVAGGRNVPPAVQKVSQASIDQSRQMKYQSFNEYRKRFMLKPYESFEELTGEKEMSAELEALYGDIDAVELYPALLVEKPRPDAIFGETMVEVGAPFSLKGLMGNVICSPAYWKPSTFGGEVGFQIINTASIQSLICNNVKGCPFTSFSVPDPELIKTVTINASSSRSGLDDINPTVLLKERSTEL
Test: Inhibition of COX-2 enzyme activity
Type: biochemical
Conditions: at a concentration of 10 μmol/L; read-out: inhibitory rate, COX-2

O=C(O)c1cc(-c2ccco2)nc2ccc3nn(-c4ccccc4)nc3c12 [Compound 133, 7-(furan-2-yl)-2-phenyl-2H-[1,2,3]triazolo[4,5-f]quinoline-9-carboxylic acid] was tested, and the inhibition at 10 µM was ≤ 20%.
